According to article PMC6108528, “Enhanced uptake of potassium or glycine betaine or export of cyclic-di-AMP restores osmoresistance in a high cyclic-di-AMP Lactococcus lactis mutant” (PLoS Genetics, 2018):

Target: T1, full length BusR (Lactococcus cremoris, UniProt A2RK30)
T1 construct: full length, His-6 tag fusion in pRSETA, codon optimised, E. coli BL21 whole cell lysate
T1 sequence (A2RK30 1-206): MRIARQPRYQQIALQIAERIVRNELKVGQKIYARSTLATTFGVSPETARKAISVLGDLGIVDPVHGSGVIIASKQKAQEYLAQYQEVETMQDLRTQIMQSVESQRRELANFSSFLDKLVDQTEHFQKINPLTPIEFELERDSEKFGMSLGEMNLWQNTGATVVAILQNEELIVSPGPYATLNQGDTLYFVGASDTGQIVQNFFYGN
Assay: DRaCALA with […]-c-di-AMP, E. coli whole cell lysate
Format: biochemical
Settings: labelled compound; room temperature, 10 min

Nc1ncnc2c1ncn2[C@@H]1O[C@@H]2COP(=O)(O)O[C@H]3[C@@H](O)[C@H](n4cnc5c(N)ncnc54)O[C@@H]3COP(=O)(O)O[C@H]2[C@H]1O [c-di-AMP]
DRaCALA with 32P-c-di-AMP, E. coli whole cell lysate: Both full length BusR and the BusR TrkA_C domain bound c-di-AMP
